Measurements from patent US10080789B2, “Programming of cells for tolerogenic therapies” (President and Fellows of Harvard College, priority 2009, dated 2018).
Where no end group is shown, it is not given here.

Legend:
[1] = test system: mononuclear cells isolated from the bone marrow (BM) of C57BL/6 mice; assay: In vitro induction of DC from bone marrow mononuclear cells, phenotype and cytokine production; type: cell-based; details: for CD11c+/CD86+ in total BM cells: 7 day incubation of BM cells with GM-CSF with or without the named factor; for expression of the proinflammatory cytokines IL-6 and IL-12 by induced DC: GM-CSF in presence of named factor, bacterial stimulation, vs DC induced by GM-CSF alone
Text: FIGS. 5F (Table 1) and 5A-E reflect the potency of a material system that delivers TSLP and GM-CSF to PD lesion in induction of tolerogenic DC. […] The surface phenotypes of CD11c+DC in the BM culture were monitored by flow cytometry and the proportionality of each phenotype is expressed as a percent (%) of the total mononuclear cells (MNC) (FIG. 5F, Table 1).
The present invention provides for a material-based local application of GM-CSF with appropriate DC influencing factors that leads to tolerogenic DCs (tDCs), and subsequent enrichment of iTreg cells. Candidate biofactors include thymic stromal lymphopoietin (TSLP), vasoactive intestinal peptide (VIP), and transforming growth factor-beta (TGF-β). Screening is based on the induced DC's anti-inflammatory properties. […] Overall, these observations that the combination of GM-CSF with TSLP efficiently induces DC with an anti-inflammatory phenotype.

[2] = test system: JAWSII DCs; assay: JAWSII DC recruitment, proliferation, emigration and activation in vitro (transwell); type: cell-based
Description: FIGS. 3A-D show data related to the concentration dependent effects of GM-CSF on DC proliferation, recruitment, activation and emigration in vitro. […] Migration counts measured at 12 hours. FIG. 3B is the effects of GM-CSF concentration on the proliferation of JAWSII DCs. 0 (white bar), 50 (grey bar), and 500 ng/ml (black bar) of GM-CSF. […] Migration counts taken at 6 hours. FIG. 3D are representative photomicrographs of TNF-α and LPS stimulated JAWSII DCs cultured in 5-50 or 500 ng/ml GM-CSF and stained for the activation markers MHCII and CCR7. Scale bar in FIG. 3D—20 μm. Values in FIGS. 3A-C represent mean and standard deviation (n=4); *P<0.05; **P<0.01
Migration assays are performed with 6.5 mm transwell dishes (Costar, Cambridge, Mass.) with a pore size of 5 μm. The effects of GM-CSF and TSLP, (Invivogen, San Diego, Calif.) on the migration of DCs are assessed by placing recombinant murine GM-CSF and TSLP in the bottom wells and 5×10^5 DCs in the top wells. To assess the effects of GM-CSF and TSLP on DC activation, cells are cultured with bacterial stimulation (fixed Aa, fixed P. gingivalis, Aa-LPS or Pg-LPS along) with various concentrations of TSLP and GM-CSF for 24 hours and then the cells are washed and fixed in 10% formalin. The cells are prepared for fluorescence immunohistochemistry as per below, and examined using fluorescent microscopy (Olympus, Center Valley, Pa.). Cells are also analyzed by FACS, and gated according to positive stains using isotype controls, and the percentage of cells staining positive for each surface antigen will be recorded.

[3] = Release profile of GM-CSF from polymer delivery vehicle; type: physicochemical; details: within the first 5 days; then slow sustained release over next 10 days
Text: (§1) Numbers in FACS plots indicate the percentage of the cell population positive for both markers. FIG. 4D is the percentage of total cells that were positive for the DC markers CD11c and CD86, in blank (-∘-) and GM-CSF (-●-) loaded polymers as a function of time post implantation. […] Scale bar—500 μm. Values in FIGS. 4A, 4D, 4E, and 4F represent mean and standard deviation (n=4 or 5); *P<0.05; **P<0.01.
(§2) The polymer delivery vehicle presents GM-CSF in a defined spatiotemporal manner in vivo, following introduction into the tissue of interest. […]
To determine the efficiency of GM-CSF, TSLP, and pDNA incorporation and the kinetics of release, ^125I-labeled factors (Perkin Elmer) are utilized as a tracer, and gels and placed in Phosphate Buffer Solution (PBS) (37° C.). At various time points, the PBS release media is collected and amount of ^125I-factor released from the scaffolds is determined at each time point using a gamma counter and normalizing to the total ^125I-factor incorporated into the gels. To asses the retention of GM-CSF bioactivity, loaded gels are placed in the top wells of 6.5 mm transwell dishes (Costar, Cambridge, Mass.) with a pore size of 3 μm and the proliferation of JAWS II cells (DC cell line) cultured in the bottom wells is evaluated at various time points using cell counts from a hemacytometer. […]

[4] = test system: CD11c(+)CD86(+) DCs; assay: In vivo DC recruitment to subcutaneously implanted GM-CSF loaded polymers; design: species or system C57BL/6J mice; details: polymers loaded with 3 μg GM-CSF
Text: as §1, §2
Gels with various combinations of factors are injected into gingival of mice. […] To analyze DC recruitment, gels and surrounding tissue are excised at various time-points and the tissue digested into single cell suspensions using a collagenase solution (Worthingtion, 250 U/ml) that was agitated at 37° C. for 45 min The cell suspensions are then poured through a […] cell strainer to isolate cells from gel particles and the cells are pelleted and washed with cold PBS and counted using a Z2 coulter counter (Beckman Coulter). […] Cells are gated according to positive labels using isotype controls, and the percentage of cells staining positive for each surface antigen is recorded.

[5] = molecular target: T1, T cell-specific potassium channel Kv1.3 (Rattus norvegicus, UniProt P15384); details: cited from earlier work
T1 construct: endogenous in cells
T1 sequence (P15384 whole entry): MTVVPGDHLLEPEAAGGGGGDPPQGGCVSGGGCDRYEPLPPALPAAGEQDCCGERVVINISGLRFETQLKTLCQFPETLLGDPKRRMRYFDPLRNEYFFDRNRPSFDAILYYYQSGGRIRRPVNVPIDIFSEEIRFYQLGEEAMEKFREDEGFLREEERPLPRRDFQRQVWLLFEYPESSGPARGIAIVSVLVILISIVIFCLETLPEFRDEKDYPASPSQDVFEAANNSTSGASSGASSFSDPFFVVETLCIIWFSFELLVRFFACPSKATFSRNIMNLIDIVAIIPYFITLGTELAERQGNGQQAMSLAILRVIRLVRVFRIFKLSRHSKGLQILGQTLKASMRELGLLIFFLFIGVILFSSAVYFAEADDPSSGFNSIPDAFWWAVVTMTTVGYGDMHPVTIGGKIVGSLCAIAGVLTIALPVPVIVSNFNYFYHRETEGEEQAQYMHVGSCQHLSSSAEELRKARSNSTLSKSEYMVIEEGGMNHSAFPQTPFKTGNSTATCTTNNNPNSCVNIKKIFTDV

transforming growth factor-beta [TGF-b]
CD11c+/CD86+ in total BM cells [1]: 10.5% | expression of the proinflammatory cytokines IL-6 and IL-12 by induced DC [1]: diminished expression

granulocyte-macrophage colony stimulating factor [GM-CSF]
DC recruitment and proliferation ([2]; JAWSII DCs in vitro): enhanced DC recruitment and proliferation in a dose-dependent manner | DC activation via TNF-α and LPS stimulation (MHCII and CCR7 expression) ([2]; high concentrations of GM-CSF): suppressed DC activation | GM-CSF concentrations that inhibited DC migration toward the LN-derived chemokine CCL19 ([2]; transwell, 300 ng/ml CCL19, counts at 6 hours): > 100 ng/mL | bioactive GM-CSF load released [3]: approximately 60% | total cellular infiltration at the site ([4]; dorsal subcutaneous, day-14, vs control): significantly enhanced | total cell number and percentage of infiltrating cells that were CD11c(+)CD86(+) DCs ([4]; subcutaneous): increased | CD11c+/CD86+ in total BM cells [1]: 14.7%

vasoactive intestinal peptide (HSDAVFTDNYTRLRKQMAVKKYLNSILN; ends and bridges not checked; UniProt P01282 125-152, looked up) [VIP, candidate biofactor tested with GM-CSF]
IL-10 production by induced DC ([1]; BM cells with GM-CSF and named factor (100 ng/ml), 7 days, bacterial challenge): did not up-regulate | expression of the proinflammatory cytokines IL-6 and IL-12 by induced DC [1]: diminished expression

thymic stromal lymphopoietin [TSLP]
expression of the proinflammatory cytokines IL-6 and IL-12 by induced DC [1]: diminished expression

Kaliotoxin
RANKL production by activated rat T cells [5]: inhibits
